From patent US10874743B2, “IRAK degraders and uses thereof” (Kymera Therapeutics, Inc., priority 2017, dated 2020)

Biological target: T1, IRAK4 (Homo sapiens, UniProt Q9NWZ3)
T1 sequence (Q9NWZ3 1-460): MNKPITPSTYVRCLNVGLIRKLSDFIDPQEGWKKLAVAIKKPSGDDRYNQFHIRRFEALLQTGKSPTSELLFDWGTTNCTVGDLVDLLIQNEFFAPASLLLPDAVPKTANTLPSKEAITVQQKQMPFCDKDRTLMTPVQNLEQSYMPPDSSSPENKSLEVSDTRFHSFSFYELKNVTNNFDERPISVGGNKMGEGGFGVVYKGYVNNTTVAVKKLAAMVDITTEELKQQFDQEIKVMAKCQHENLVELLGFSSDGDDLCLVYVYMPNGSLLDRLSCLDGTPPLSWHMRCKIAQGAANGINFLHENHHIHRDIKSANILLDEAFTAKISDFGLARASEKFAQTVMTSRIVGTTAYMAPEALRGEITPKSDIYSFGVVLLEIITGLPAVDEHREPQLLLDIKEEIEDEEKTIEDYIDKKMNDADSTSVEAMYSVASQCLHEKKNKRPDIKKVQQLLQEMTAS
Assay: OCI-LY-10 degradation assay (western blot, % IRAK4 degraded after 4 hours)
Assay type: cell-based
Parameters: endogenous in cells; host or cells: OCI-LY10
Details: OCI-LY10 cells; for OCI-LY10 % IRAK4 Degradation: IRAK4 degraded after 4 hours, western blot; for OCI-LY10 % IRAK4 Degradation (0.01 uM) / OCI-LY10 % IRAK4 Degradation (0.1 uM) / OCI-LY10 % IRAK4 Degradation (1 uM): 4 hours; for OCI-LY10 % IRAK4 Degradation (0.01 uM): 0.01 uM compound; for OCI-LY10 % IRAK4 Degradation (0.1 uM): 0.1 uM compound; for OCI-LY10 % IRAK4 Degradation (1 uM): 1 uM compound
Method in brief: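 OCI-LY10 cells (RPMI-1640, 20% FBS, 55 μM 2-ME) treated with compound at 0.003-10 μM final for 4 h at 37° C, then lysed in RIPA buffer. IRAK4 level read by fluorescent western blot (20-25 μg protein) and binned as % degraded: A >50%, B >20-50%, C <20%.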

| Structure (SMILES) | OCI-LY10 % IRAK4 Degradation | OCI-LY10 % IRAK4 Degradation (0.01 uM) | OCI-LY10 % IRAK4 Degradation (0.1 uM) | OCI-LY10 % IRAK4 Degradation (1 uM) |
| --- | --- | --- | --- | --- |
| N#Cc1cnc2c(cnn2-c2cc(NC3CC3)c(-c3cn(CCOCCOCCOCCOCCOCCNc4cccc5c4C(=O)N(C4CCC(=O)NC4=O)C5=O)nn3)cn2)c1 (stereo not drawn) [I-176, 1-[4-(Cyclopropylamino)-5-[1-[2-[2-[2-[2-[2-[2-[[2-(2,6-dioxo-3-piperidyl)-1,3-dioxo-isoindolin-4-yl]amino]ethoxy]ethoxy]ethoxy]ethoxy]ethoxy]ethyl]triazol-4-yl]-2-pyridyl]pyrazolo[3,4-b]pyridine-5-carbonitrile] | C (<20% degradation) | – | – | – |
| CC(C)(OCCOCCOCCNc1cccc2c1C(=O)N(C1CCC(=O)NC1=O)C2=O)C(F)CNC(=O)c1cnc(Nc2ccc3ncsc3c2)cc1NC1CC1 (stereo not drawn) [I-65] | C (<20% degradation) | – | – | – |
| CN(CCCCCOCCCc1cccc2c1C(=O)N(C1CCC(=O)NC1=O)C2=O)Cc1ccc(-n2cc(NC(=O)c3coc(-c4ccnc(NCC5CC5)c4)n3)c(C(N)=O)n2)cc1 (stereo not drawn) [I-312] | – | C (<20% degradation) | A (>50% degradation) | A (>50% degradation) |
| CC(C)(OCCOCCOCCNc1cccc2c1C(=O)N(C1CCC(=O)NC1=O)C2=O)C(F)CNC(=O)c1cnc(-n2ncc3cc(C#N)cnc32)cc1NC1CC1 (stereo not drawn) [I-59] | C (<20% degradation) | – | – | – |
| Cn1c(=O)n(C2CCC(=O)NC2=O)c2cccc(CCCOCCOCCNC(=O)c3ccc(-n4cc(NC(=O)c5coc(-c6ccnc(NCC(F)(F)F)c6)n5)c(C(N)=O)n4)cc3)c21 (stereo not drawn) [I-249] | – | C (<20% degradation) | A (>50% degradation) | A (>50% degradation) |
| O=C1CCC(N2C(=O)c3cccc(CCCOCCNC(=O)c4ccc(-n5cc(NC(=O)c6coc(-c7ccnc(NCC8CC8)c7)n6)c(C(F)F)n5)cc4)c3C2=O)C(=O)N1 (stereo not drawn) [I-243] | – | C (<20% degradation) | C (<20% degradation) | C (<20% degradation) |
| Cn1cc(-c2nc(C(=O)Nc3cn(-c4ccc(CNCCOCCOCCNc5ccc6c(c5)C(=O)N(C5CCC(=O)NC5=O)C6=O)cc4)nc3C(F)F)co2)cn1 (stereo not drawn) [I-353] | – | C (<20% degradation) | C (<20% degradation) | C (<20% degradation) |
| NC(=O)c1nn(-c2ccc(CNCCCc3ccc4c(c3)C(=O)N(C3CCC(=O)NC3=O)C4=O)cc2)cc1NC(=O)c1coc(-c2ccncc2)n1 (stereo not drawn) [I-372] | – | C (<20% degradation) | C (<20% degradation) | C (<20% degradation) |
| CN(CCOCCOCCOCCOCCNc1cccc2c1C(=O)N(C1CCC(=O)NC1=O)C2=O)C(=O)[C@H]1CC[C@H](NC(=O)c2cnc(-n3ncc4cc(C#N)cnc43)cc2NC2CC2)CC1 (stereo partly drawn) [I-38] | C (<20% degradation) | – | – | – |
| O=C1CCC(N2C(=O)c3cccc(CCCNCc4ccc(-n5cc(NC(=O)c6coc(-c7ccnc(NCC(F)(F)F)c7)n6)c(C(F)F)n5)cc4)c3C2=O)C(=O)N1 (stereo not drawn) [I-361] | – | C (<20% degradation) | C (<20% degradation) | C (<20% degradation) |
| O=C1CCC(N2C(=O)c3ccc(CCCNCc4ccc(-n5cc(NC(=O)c6coc(-c7ccnc(NCC(F)(F)F)c7)n6)c(C(F)F)n5)cc4)cc3C2=O)C(=O)N1 (stereo not drawn) [I-375] | – | B (>20-50% degradation) | B (>20-50% degradation) | B (>20-50% degradation) |
| O=C1CCC(N2C(=O)c3cccc(CCCN4CCC(n5cc(NC(=O)c6coc(-c7ccnc(NCC8CC8)c7)n6)c(C(F)F)n5)CC4)c3C2=O)C(=O)N1 (stereo not drawn) [I-259] | – | C (<20% degradation) | C (<20% degradation) | C (<20% degradation) |
| O=C1CCC(N2C(=O)c3cccc(NC4CN(CCOCCOCCNCc5ccc(-n6cc(NC(=O)c7coc(-c8ccnc(NCC9CC9)c8)n7)c(C(F)F)n6)cc5)C4)c3C2=O)C(=O)N1 (stereo not drawn) [I-338] | – | C (<20% degradation) | B (>20-50% degradation) | B (>20-50% degradation) |
| NC(=O)c1nn(CC#CC#CCOCCOCCNc2cccc3c2C(=O)N(C2CCC(=O)NC2=O)C3=O)cc1NC(=O)c1coc(-c2ccnc(NCC3CC3)c2)n1 (stereo not drawn) [I-434, N-[3-carbamoyl-1-[6-[2-[2-[[2-(2,6-dioxo-3-piperidyl)-1,3-dioxo-isoindolin-4-yl]amino]ethoxy]ethoxy]hexa-2,4-diynyl]pyrazol-4-yl]-2-[2-(cyclopropylmethylamino)-4-pyridyl]oxazole-4-carboxamide] | – | C (<20% degradation) | C (<20% degradation) | C (<20% degradation) |
| O=C1CCC(N2C(=O)c3cccc(NCCOCCOCCOCC(F)CNC(=O)c4cnc(Nc5ccc6ncsc6c5)cc4NC4CC4)c3C2=O)C(=O)N1 (stereo not drawn) [I-54] | C (<20% degradation) | – | – | – |
| N#Cc1cnc2c(cnn2-c2cc(NC3CC3)c(-c3cn(CCOCCOCCOCCNc4cccc5c4C(=O)N(C4CCC(=O)NC4=O)C5=O)nn3)cn2)c1 (stereo not drawn) [I-175, 1-[4-(cyclopropylamino)-5-[1-[2-[2-[2-[2-[[2-(2,6-dioxo-3-piperidyl)-1,3-dioxo-isoindolin-4-yl]amino]ethoxy]ethoxy]ethoxy]ethyl]triazol-4-yl]-2-pyridyl]pyrazolo[3,4-b]pyridine-5-carbonitrile] | C (<20% degradation) | – | – | – |
| CN(CCOCCCc1ccc2c(c1)C(=O)N(C1CCC(=O)NC1=O)C2=O)Cc1ccc(-n2cc(NC(=O)c3coc(-c4ccnc(NCC5CC5)c4)n3)c(C(F)F)n2)cc1 (stereo not drawn) [I-376] | – | B (>20-50% degradation) | A (>50% degradation) | A (>50% degradation) |
| Cc1ncsc1-c1ccc(CNC(=O)[C@@H]2C[C@@H](O)CN2C(=O)[C@@H](NC(=O)COCCOCCOCCOCCOCC(=O)N2CCN([C@H]3CC[C@H](Oc4ncnc5sc6c(c45)[C@@H](C[C@H](O)C(N)=O)CC6)CC3)CC2)C(C)(C)C)cc1 [I-123] | C (<20% degradation) | – | – | – |
| N#Cc1cnc2c(cnn2-c2cc(NC3CC3)c(C(=O)NCC(F)COCCOCCOCCOCCOCCNc3cccc4c3C(=O)N(C3CCC(=O)NC3=O)C4=O)cn2)c1 (stereo not drawn) [I-57] | C (<20% degradation) | – | – | – |
| O=C1CCC(N2C(=O)c3cccc(CCCOCCNCc4ccc(-n5cc(NC(=O)c6coc(-c7ccnc(NCC8CC8)c7)n6)c(C(F)F)n5)cc4)c3C2=O)C(=O)N1 (stereo not drawn) [I-367] | – | B (>20-50% degradation) | B (>20-50% degradation) | A (>50% degradation) |
| CC(C)(OCCNCCOCCNc1cccc2c1C(=O)N(C1CCC(=O)NC1=O)C2=O)C(F)CNC(=O)c1cnc(-n2ncc3cc(C#N)cnc32)cc1NC1CC1 (stereo not drawn) [I-129] | C (<20% degradation) | – | – | – |
| CC[C@@H]1[C@H](F)C(=O)N[C@@H]1COc1nccc2cc(C(=O)NCCOCCOCCNc3cccc4c3C(=O)N(C3CCC(=O)NC3=O)C4=O)c(OC)cc12 (stereo partly drawn) [I-87] | C (<20% degradation) | – | – | – |
| NC(=O)c1nn(-c2ccc(CNCCOCCOCCOCCCc3cccc4c3CN(C3CCC(=O)NC3=O)C4=O)cc2)cc1NC(=O)c1coc(-c2ccnc(NCC3CC3)c2)n1 (stereo not drawn) [I-325] | – | B (>20-50% degradation) | A (>50% degradation) | A (>50% degradation) |
| O=C1CCC(N2C(=O)c3cccc(NCCOCCN4CCN(CCOCCNCc5ccc(-n6cc(NC(=O)c7coc(-c8ccnc(NCC9CC9)c8)n7)c(C(F)F)n6)cc5)CC4)c3C2=O)C(=O)N1 (stereo not drawn) [I-348] | – | C (<20% degradation) | C (<20% degradation) | A (>50% degradation) |
| N#Cc1cnc2c(cnn2-c2cc(NC3CC3)c(C(=O)N[C@H]3C[C@H](COCCOCCOCCNc4cccc5c4C(=O)N(C4CCC(=O)NC4=O)C5=O)C3)cn2)c1 (stereo partly drawn) [I-34] | C (<20% degradation) | – | – | – |
| CC(OCCNc1cccc2c1C(=O)N(C1CCC(=O)NC1=O)C2=O)C(F)CNC(=O)c1cnc(Nc2ccc3cnccc3n2)cc1NC1CC1 (stereo not drawn) [I-77] | C (<20% degradation) | – | – | – |
